In PubChem BioAssay (NCI):
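Growth conditions: 96-well plates. Treatment: test compound, 48 hours, 5 concentrations. Analysis: linear interpolation between bracketing concentrations; unreached endpoints set to highest concentration. TGI denotes the concentration required for complete inhibition of growth.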

Key:
Assay in all cases: NCI-60 cell line screen, 48 h
[1] = test system: BT-549 breast
[2] = test system: COLO 205 colon
[3] = test system: DU-145 prostate
[4] = test system: HCT-15 colon
[5] = test system: M14 melanoma
[6] = test system: MOLT-4 leukemia
[7] = test system: SK-MEL-28 melanoma
[8] = test system: SK-MEL-5 melanoma
[9] = test system: SN12C renal
[10] = test system: SNB-19 CNS
[11] = test system: SW-620 colon

SMILES	TGI [1] [µM]	TGI [2] [µM]	TGI [3] [µM]	TGI [4] [µM]	TGI [5] [µM]	TGI [6] [µM]	TGI [7] [µM]	TGI [8] [µM]	TGI [9] [µM]	TGI [10] [µM]	TGI [11] [µM]
COc1c(O)cc(/C=C/c2cc(O)cc3c2[C@@]2(C(=O)O3)c3c(O)cc(O)cc3OC2c2cccc(O)c2)cc1O (stereo partly specified)	> 100	> 100	> 100	> 100	> 100	11	> 100	72.1	64.3	> 100	> 100
CCN(CC)c1ccc(/C=C/C2=NN(c3cccc(S(=O)(=O)O)c3)C3(C2)C(Cl)C(=O)N3c2nc3ccccc3s2)cc1 (stereo unspecified)	22.7	31.8	25.2	24.1	28.1	13.9	63	20.9	29	29.7	53.4
COc1ccc2oc(=N)c(C(N)=S)cc2c1	43.5	> 100	> 100	36.7	> 100	> 100	> 100	57.8	82.8	> 100	> 100
CC1CCCc2c(-c3ccc(Cl)cc3)nc(N)c(C#N)c21 (stereo unspecified)	53.4	48.3	> 100	> 100	86	69.8	> 100	38.5	> 100	> 100	> 100
COc1ccc(CSCc2cc(OC)c(OC)c(OC)c2)cc1	> 100	> 100	> 100	> 100	> 100	> 100	> 100	> 100	> 100	> 100	> 100
CCOC(=O)CNC(=O)C(CSC(=O)N(O)c1ccc(Br)cc1)NC(=O)CCC(N)C(=O)OCC (stereo unspecified)	> 50	> 50	> 50	> 50	> 50	> 50	> 50	> 50	> 50	> 50	> 50
